Measurements: ChEMBL document CHEMBL3396966, “In vitro studies of antimicrobial activity of Gly-His-Lys conjugates as potential and promising candidates for therapeutics in skin and tissue infections” (2015)
In brackets after ≈: the same amount, converted by molar mass. Activity calls are given as the source filed them. The calls are words filed in the database; no cut-off is given here. Non-standard residues stand in square brackets, D forms with d. Residues, ends and D or L forms follow the SMILES beside them. ξ: configuration not given here. *: point of attachment. Stearoyl = CCCCCCCCCCCCCCCCCC(=O)*; Palmitoyl = CCCCCCCCCCCCCCCC(=O)*; Lauroyl = CCCCCCCCCCCC(=O)*; ξHyp = O=C(O)C1CC(O)CN1

What was measured:
[1] = test system: Staphylococcus aureus; experiment: Bacteriostatic activity against Staphylococcus aureus after 16 to 20 hrs by broth micro-dilution method; format: functional, organism-based
[2] = test system: Pseudomonas aeruginosa; experiment: Bacteriostatic activity against Pseudomonas aeruginosa PCM 2562 (ATCC9027) after 16 to 20 hrs by broth micro-dilution method; format: functional, organism-based
[3] = test system: Escherichia coli; experiment: Antimicrobial activity against Escherichia coli after 16 to 20 hrs by broth micro-dilution method; format: functional, organism-based
[4] = test system: Staphylococcus aureus; experiment: Antimicrobial activity against Staphylococcus aureus after 16 to 20 hrs by broth micro-dilution method; format: functional, organism-based
[5] = test system: Escherichia coli; experiment: Bactericidal activity against Escherichia coli up to 18 hrs by time-kill assay; format: functional, organism-based
[6] = test system: Staphylococcus aureus; experiment: Bactericidal activity against Staphylococcus aureus at 0.5 to 1 times MIC up to 18 hrs by time-kill assay; format: functional, organism-based
[7] = test system: Staphylococcus aureus; experiment: Bactericidal activity against Staphylococcus aureus at 8 times MIC up to 18 hrs by time-kill assay; format: functional, organism-based
[8] = test system: Staphylococcus aureus; experiment: Bactericidal activity against Staphylococcus aureus at 6 times MIC up to 18 hrs by time-kill assay; format: functional, organism-based
[9] = test system: Escherichia coli; experiment: Antimicrobial activity against Escherichia coli DSM11250 (PCM2560, NTCC 10538) after 16 to 20 hrs by broth micro-dilution method; format: functional
[10] = test system: Escherichia coli; experiment: Antimicrobial activity against Escherichia coli PCM 2561 (ATCC 8739, DSM 1576) after 16 to 20 hrs by broth micro-dilution method; format: functional
[11] = test system: Staphylococcus aureus; experiment: Bactericidal activity against Staphylococcus aureus at 100 ug/ml up to 18 hrs by time-kill assay; format: functional, organism-based
[12] = test system: Staphylococcus aureus; experiment: Antimicrobial activity against Staphylococcus aureus PCM 2054 (ATCC 25923) after 16 to 20 hrs by broth micro-dilution method; format: functional
[13] = test system: Staphylococcus aureus; experiment: Antimicrobial activity against Staphylococcus aureus PCM 2602 (ATCC 6538) after 16 to 20 hrs by broth micro-dilution method; format: functional
[14] = test system: Staphylococcus aureus; experiment: Bactericidal activity against Staphylococcus aureus at 4 times MIC up to 18 hrs by time-kill assay; format: functional, organism-based
[15] = test system: Candida albicans; experiment: Fungicidal activity against Candida albicans at 2 times MIC by time-kill assay; format: functional, organism-based
[16] = test system: Pseudomonas aeruginosa; experiment: Antimicrobial activity against Pseudomonas aeruginosa PCM 2562 (ATCC9027) after 16 to 20 hrs by broth micro-dilution method; format: functional
[17] = test system: Pseudomonas aeruginosa; experiment: Bactericidal activity against Pseudomonas aeruginosa PCM 2562 (ATCC9027) at 4 times MIC up to 18 hrs by broth micro-dilution method; format: functional, organism-based
[18] = test system: Candida albicans; experiment: Fungicidal activity against Candida albicans at MIC by time-kill assay; format: functional, organism-based
[19] = test system: Pseudomonas aeruginosa; experiment: Bactericidal activity against Pseudomonas aeruginosa PCM 2562 (ATCC9027) after 18 hrs by broth micro-dilution method; format: functional, organism-based
[20] = test system: Staphylococcus aureus; experiment: Bactericidal activity against Staphylococcus aureus at 0.5 to 1 time MIC up to 18 hrs by time-kill assay; format: functional, organism-based
[21] = test system: Staphylococcus aureus; experiment: Bactericidal activity against Staphylococcus aureus at 1 to 4 times MIC up to 18 hrs by time-kill assay; format: functional, organism-based
[22] = test system: Pseudomonas aeruginosa; experiment: Bactericidal activity against Pseudomonas aeruginosa PCM 2562 (ATCC9027) after 4 hrs by broth micro-dilution method; format: functional, organism-based
[23] = test system: Staphylococcus aureus; experiment: Bactericidal activity against Staphylococcus aureus up to 4 times MIC up to 18 hrs by time-kill assay; format: functional, organism-based
[24] = test system: Candida albicans; experiment: Fungicidal activity against Candida albicans at 2 to 4 times MIC by time-kill assay; format: functional, organism-based
[25] = test system: Candida albicans; experiment: Antifungal activity against Candida albicans after 16 to 20 hrs by broth micro-dilution method; format: functional, organism-based
[26] = test system: Candida albicans; experiment: Fungicidal activity against Candida albicans by time-kill assay; format: functional, organism-based
[27] = Escherichia coli, DSM11250 (PCM2560, NTCC 10538)
[28] = Escherichia coli, PCM 2561 (ATCC 8739, DSM 1576)
[29] = Staphylococcus aureus, PCM 2054 (ATCC 25923)
[30] = Staphylococcus aureus, PCM 2602 (ATCC 6538)
[31] = Pseudomonas aeruginosa, PCM 2562 (ATCC9027)

## NCCCC[C@H](NC(=O)C1CC(O)CN1C(=O)CN)C(=O)O (some centres undefined) (H-Gly-[ξHyp]-Lys-OH)
[1]
  Activity: Active
[2]
  Activity: Active
[3]
  Activity: Active
[4]
  Activity: Active

## CCCCCCCCCCCC(=O)NCC(=O)NCC(=O)N1CC(O)CC1C(=O)N[C@@H](CCCCN)C(=O)O (some centres undefined) (Lauroyl-GG[ξHyp]K-OH)
[5]
  Activity: Active
[6]
  Activity: Active

## CCCCCCCCCCCC(=O)NCC(=O)N1CC(O)CC1C(=O)N[C@@H](CCSC)C(=O)N[C@@H](CCCCN)C(=O)O (some centres undefined) (Lauroyl-G[ξHyp]MK-OH)
[7]
  Activity: Active

## CCCCCCCCCCCCCCCC(=O)NCC(=O)N1CC(O)CC1C(=O)N[C@@H](CCCCN)C(N)=O (some centres undefined) (Palmitoyl-Gly-[ξHyp]-Lys-NH2)
[8]
  Activity: Active
[9]; [27]
  MIC50: 31.3 µg/mL (≈ 56.5 µM)
  MIC90: 62.5 µg/mL (≈ 113 µM)
[10]; [28]
  MIC50: 62.5 µg/mL (≈ 113 µM)
  MIC90: 125 µg/mL (≈ 226 µM)
[11]
  Activity: Active
[12]
  MBC50: 93.7 µg/mL (≈ 169 µM)
  MBC90: 125 µg/mL (≈ 226 µM)
[12]; [29]
  MIC50: 31.3 µg/mL (≈ 56.5 µM)
  MIC90: 62.5 µg/mL (≈ 113 µM)
[13]
  MBC50: 93.7 µg/mL (≈ 169 µM)
  MBC90: 125 µg/mL (≈ 226 µM)
[13]; [30]
  MIC50: 31.3 µg/mL (≈ 56.5 µM)
  MIC90: 31.3 µg/mL (≈ 56.5 µM)
[14]
  Activity: Active
[15]
  Activity: Active
[16]
  MBC50: 1500 µg/mL (≈ 2710 µM)
  MBC90: 2000 µg/mL (≈ 3610 µM)
[16]; [31]
  MIC50: 375 µg/mL (≈ 677 µM)
  MIC90: 500 µg/mL (≈ 903 µM)
[17]
  Activity: Active
[18]
  Activity: Active

## CCCCCCCCCCCCCCCC(=O)NCC(=O)N1CC(O)CC1C(=O)N[C@@H](CCCCN)C(=O)O (some centres undefined) (Palmitoyl-Gly-[ξHyp]-Lys-OH)
[5]
  Activity: Active
[19]
  Activity: Active
[14]
  Activity: Active
[20]
  Activity: Active
[21]
  Activity: Active
[22]
  Activity: Active
[23]
  Activity: Active

## CCCCCCCCCCCCCCCCCC(=O)NCC(=O)NCC(=O)N1CC(O)CC1C(=O)N[C@@H](CCCCN)C(=O)O (some centres undefined) (Stearoyl-GG[ξHyp]K-OH)
[15]
  Activity: Active
[24]
  Activity: Active

## NC[C@H]1O[C@H](O[C@H]2[C@H](O)[C@@H](O[C@H]3O[C@H](CO)[C@@H](O)[C@H](N)[C@H]3O)[C@H](N)C[C@@H]2N)[C@H](O)[C@@H](O)[C@@H]1O [KANAMYCIN]
[9]
  MBC50: 15.6 µg/mL (≈ 32.2 µM)
  MBC90: 31.3 µg/mL (≈ 64.6 µM)
[9]; [27]
  MBC: 7.8 µg/mL (≈ 16.1 µM)
  MIC: 3.9 µg/mL (≈ 8.05 µM)
  MIC50: 7.8 µg/mL (≈ 16.1 µM)
  MIC90: 15.6 µg/mL (≈ 32.2 µM)
[10]
  MBC50: 15.6 µg/mL (≈ 32.2 µM)
  MBC90: 31.3 µg/mL (≈ 64.6 µM)
[10]; [28]
  MBC: 7.8 µg/mL (≈ 16.1 µM)
  MIC: 3.9 µg/mL (≈ 8.05 µM)
  MIC50: 7.8 µg/mL (≈ 16.1 µM)
  MIC90: 15.6 µg/mL (≈ 32.2 µM)
[12]
  MBC50: 3.9 µg/mL (≈ 8.05 µM)
  MBC90: 7.8 µg/mL (≈ 16.1 µM)
[12]; [29]
  MBC: 11.7 µg/mL (≈ 24.1 µM)
  MIC: 2.9 µg/mL (≈ 5.99 µM)
  MIC50: 2.9 µg/mL (≈ 5.99 µM)
  MIC90: 5.8 µg/mL (≈ 12 µM)
[13]
  MBC50: 3.9 µg/mL (≈ 8.05 µM)
  MBC90: 7.8 µg/mL (≈ 16.1 µM)
[13]; [30]
  MBC: 11.7 µg/mL (≈ 24.1 µM)
  MIC: 2.9 µg/mL (≈ 5.99 µM)
  MIC50: 2.9 µg/mL (≈ 5.99 µM)
  MIC90: 5.8 µg/mL (≈ 12 µM)

## CN(C)[C@@H]1C(O)=C(C(N)=O)C(=O)[C@@]2(O)C(O)=C3C(=O)c4c(O)cccc4[C@@](C)(O)[C@H]3C[C@@H]12 [TETRACYCLINE]
[16]
  MBC50: 31.3 µg/mL (≈ 70.4 µM)
  MBC90: 62.5 µg/mL (≈ 141 µM)
[16]; [31]
  MBC: 31.3 µg/mL (≈ 70.4 µM)
  MIC: 3.9 µg/mL (≈ 8.78 µM)
  MIC50: 3.91 µg/mL (≈ 8.8 µM)
  MIC90: 7.81 µg/mL (≈ 17.6 µM)

## NYSTATIN
[25]
  MFC: 7.8 µg/mL
  MFC50: 1.9 µg/mL
  MFC90: 7.8 µg/mL
  MIC50: 1.9 µg/mL
  MIC90: 3.9 µg/mL
[26]
  Activity: Active
